Mutagenic call data for four compounds are collected here from PubChem BioAssay AID1259407 (Chemical Carcinogenesis Research Information System (CCRIS), 2018).

The source made the active and inactive calls. How the calls were made is not given here.

This series relates to CCRIS mutagenicity, Ames/micronucleus/aberration tests. In words: CCRIS mutagenicity studies.
Where [1] appears, read: Test System: AMES SALMONELLA TYPHIMURIUM, Strain/Indicator: TA98, Metabolic Activation: NONE, Method: PREINCUBATION
Where [2] appears, read: Test System: AMES SALMONELLA TYPHIMURIUM, Strain/Indicator: TA100, Metabolic Activation: HAMSTER, LIVER, S-9, AROCLOR 1254 (30%), Method: PREINCUBATION
[3] abbreviates: Test System: AMES SALMONELLA TYPHIMURIUM, Strain/Indicator: TA100, Metabolic Activation: NONE, Method: PREINCUBATION
[4] abbreviates: Test System: AMES SALMONELLA TYPHIMURIUM, Strain/Indicator: TA100, Metabolic Activation: RAT, LIVER, S-9, AROCLOR 1254 (30%), Method: PREINCUBATION
Setting [5] is: Test System: AMES SALMONELLA TYPHIMURIUM, Strain/Indicator: TA1535, Metabolic Activation: NONE, Method: PREINCUBATION

Regarding `O=NN1CCOCC1`, the mutagenic call runs as follows: (End Point: IN VITRO CHROMOSOMAL ABERRATIONS, Test System: HEPG2 HEPATOMA (HUMAN), Metabolic Activation: NONE) “active; positive”; (End Point: IN VITRO CHROMOSOMAL ABERRATIONS, Test System: V79 CELLS, Metabolic Activation: NONE) “active; positive”; (End Point: IN VITRO CHROMOSOMAL ABERRATIONS, Test System: VH10 CELLS (HUMAN), Metabolic Activation: NONE) “inactive; negative”; (Test System: AMES SALMONELLA TYPHIMURIUM, Strain/Indicator: TA98, Metabolic Activation: HAMSTER, LIVER, S-9, AROCLOR 1254 (30%), Method: PREINCUBATION) “inactive; negative”; under setting [1], “inactive; negative”; (Test System: AMES SALMONELLA TYPHIMURIUM, Strain/Indicator: TA98, Metabolic Activation: RAT, LIVER, S-9, AROCLOR 1254 (30%), Method: PREINCUBATION) “inactive; negative”. Besides, the mutagenic call (Test System: AMES SALMONELLA TYPHIMURIUM, Strain/Indicator: TA98, Metabolic Activation: S-9, Method: PREINCUBATION) is “inactive; negative”; the mutagenic call under setting [2] was “active; positive”; the mutagenic call under setting [3] was “inactive; negative”; the mutagenic call under setting [4] is “active; positive”; the mutagenic call (Test System: AMES SALMONELLA TYPHIMURIUM, Strain/Indicator: TA100, Metabolic Activation: RAT, LIVER, S-9, AROCLOR 1254, Method: PREINCUBATION) is “active; positive”; the mutagenic call (Test System: AMES SALMONELLA TYPHIMURIUM, Strain/Indicator: TA100, Metabolic Activation: S-9, Method: PREINCUBATION) is “active; positive”. For the same compound, the mutagenic call (Test System: AMES SALMONELLA TYPHIMURIUM, Strain/Indicator: TA100, Metabolic Activation: TOBACCO CELLS, Method: PREINCUBATION) was “inactive; negative”; the mutagenic call (Test System: AMES SALMONELLA TYPHIMURIUM, Strain/Indicator: TA104, Metabolic Activation: RAT, LIVER, S-9, AROCLOR 1254, Method: PREINCUBATION) is “active; positive”; the mutagenic call (Test System: AMES SALMONELLA TYPHIMURIUM, Strain/Indicator: TA1530, Metabolic Activation: RAT, LIVER, S-9, Method: STANDARD PLATE) is “active; positive”; the mutagenic call under setting [5] was “inactive; negative”; the mutagenic call (Test System: AMES SALMONELLA TYPHIMURIUM, Strain/Indicator: TA1535, Metabolic Activation: RAT, LIVER, HEPATOCYTES, Method: PREINCUBATION) was “active; positive”; the mutagenic call (Test System: AMES SALMONELLA TYPHIMURIUM, Strain/Indicator: TA1535, Metabolic Activation: RAT, LIVER, S-9, AROCLOR 1254, Method: PREINCUBATION) was “active; positive”. For the same compound, the mutagenic call was “active; positive” (Test System: AMES SALMONELLA TYPHIMURIUM, Strain/Indicator: TA1535, Metabolic Activation: RAT, LIVER, S-9, AROCLOR, Method: PREINCUBATION); “active; positive” (Test System: AMES SALMONELLA TYPHIMURIUM, Strain/Indicator: TA1535, Metabolic Activation: RAT, LIVER, S-9, SODIUM PHENOBARBITONE, Method: PREINCUBATION); “active; positive” (Test System: AMES SALMONELLA TYPHIMURIUM, Strain/Indicator: TA1535, Metabolic Activation: RAT, LIVER, S-9, Method: PREINCUBATION); “active; positive” (Test System: AMES SALMONELLA TYPHIMURIUM, Strain/Indicator: TA1975, Metabolic Activation: RAT, LIVER, S-9, AROCLOR 1254, Method: PREINCUBATION); “active; positive” (Test System: CHINESE HAMSTER V-79, Strain/Indicator: V-79/8-AZAGUANINE, Metabolic Activation: RAT, LIVER, S-15, PHENOBARBITAL, Method: STANDARD PLATE); “active; positive” (Test System: UDS RODENT HEPATOCYTES, Strain/Indicator: THY INCORP (NON-S-PHASE), Method: AUTORADIOGRAPHY).

For the compound `O=C1OC[C@@H](Cc2cccc(O)c2)[C@@H]1Cc1cccc(O)c1`, the mutagenic call by setting is: (Test System: CHINESE HAMSTER V79 CELLS, Strain/Indicator: V79 CELLS (HPRT)/6-THIOGUANINE, Metabolic Activation: NONE, Method: SUSPENSION/PLATE) “inactive; negative”; (Test System: CHINESE HAMSTER V-79, Strain/Indicator: V-79 (HPRT)/6-THIOGUANINE, Metabolic Activation: NONE) “inactive; negative”.

For `COC(=O)[C@@]12Oc3ccc(-c4ccc5c(c4O)C(O)=C4C(=O)C[C@H](C)[C@@H](O)[C@]4(C(=O)OC)O5)c(O)c3C(O)=C1C(=O)C[C@H](C)[C@H]2O`, the mutagenic call is, setting by setting: under setting [3], “inactive; negative”; (Test System: AMES SALMONELLA TYPHIMURIUM, Strain/Indicator: TA100, Metabolic Activation: RAT, LIVER, S-9, PHENOBARBITAL, Method: PREINCUBATION) “inactive; negative”.

As for `CC(=O)NNc1ccccc1`, the mutagenic call is, setting by setting: (Test System: AMES SALMONELLA TYPHIMURIUM, Strain/Indicator: TA97, Metabolic Activation: HAMSTER, LIVER, S-9, AROCLOR 1254 (5%), Method: PREINCUBATION) “inactive; negative”; (Test System: AMES SALMONELLA TYPHIMURIUM, Strain/Indicator: TA97, Metabolic Activation: HAMSTER, LIVER, S-9, AROCLOR 1254 (10%), Method: PREINCUBATION) “inactive; negative”; (Test System: AMES SALMONELLA TYPHIMURIUM, Strain/Indicator: TA97, Metabolic Activation: HAMSTER, LIVER, S-9, AROCLOR 1254 (30%), Method: PREINCUBATION) “active; positive”; (Test System: AMES SALMONELLA TYPHIMURIUM, Strain/Indicator: TA97, Metabolic Activation: NONE, Method: PREINCUBATION) “active; positive”; (Test System: AMES SALMONELLA TYPHIMURIUM, Strain/Indicator: TA97, Metabolic Activation: RAT, LIVER, S-9, AROCLOR 1254 (5, 10 OR 30%), Method: PREINCUBATION) “inactive; negative”; (Test System: AMES SALMONELLA TYPHIMURIUM, Strain/Indicator: TA98, Metabolic Activation: HAMSTER, LIVER, S-9, AROCLOR 1254 (5, 10 OR 30%), Method: PREINCUBATION) “inactive; negative”. Besides, the mutagenic call was “inactive; negative” under setting [1]; “inactive; negative” (Test System: AMES SALMONELLA TYPHIMURIUM, Strain/Indicator: TA98, Metabolic Activation: RAT, LIVER, S-9, AROCLOR 1254 (5, 10 OR 30%), Method: PREINCUBATION); “inactive; negative” (Test System: AMES SALMONELLA TYPHIMURIUM, Strain/Indicator: TA100, Metabolic Activation: HAMSTER, LIVER, S-9, AROCLOR 1254 (5%), Method: PREINCUBATION); “inactive; negative” (Test System: AMES SALMONELLA TYPHIMURIUM, Strain/Indicator: TA100, Metabolic Activation: HAMSTER, LIVER, S-9, AROCLOR 1254 (10%), Method: PREINCUBATION); “inactive; negative” under setting [2]; “inactive; negative” under setting [3]. The mutagenic call is, setting by setting: (Test System: AMES SALMONELLA TYPHIMURIUM, Strain/Indicator: TA100, Metabolic Activation: RAT, LIVER, S-9, AROCLOR 1254 (5%), Method: PREINCUBATION) “inactive; negative”; (Test System: AMES SALMONELLA TYPHIMURIUM, Strain/Indicator: TA100, Metabolic Activation: RAT, LIVER, S-9, AROCLOR 1254 (10%), Method: PREINCUBATION) “inactive; negative”; under setting [4], “inactive; negative”; (Test System: AMES SALMONELLA TYPHIMURIUM, Strain/Indicator: TA1535, Metabolic Activation: HAMSTER, LIVER, S-9, AROCLOR 1254 (10%), Method: PREINCUBATION) “inactive; negative”; (Test System: AMES SALMONELLA TYPHIMURIUM, Strain/Indicator: TA1535, Metabolic Activation: HAMSTER, LIVER, S-9, AROCLOR 1254 (30%), Method: PREINCUBATION) “inactive; negative”; under setting [5], “active; positive”. For the same compound, the mutagenic call is “inactive; negative” (Test System: AMES SALMONELLA TYPHIMURIUM, Strain/Indicator: TA1535, Metabolic Activation: RAT, LIVER, S-9, AROCLOR 1254 (5%), Method: PREINCUBATION); “inactive; negative” (Test System: AMES SALMONELLA TYPHIMURIUM, Strain/Indicator: TA1535, Metabolic Activation: RAT, LIVER, S-9, AROCLOR 1254 (10%), Method: PREINCUBATION); “inactive; negative” (Test System: AMES SALMONELLA TYPHIMURIUM, Strain/Indicator: TA1535, Metabolic Activation: RAT, LIVER, S-9, AROCLOR 1254 (30%), Method: PREINCUBATION).
